Measured values: publication PMC8199755, “In Vitro and In Vivo Trypanocidal Efficacy of Synthesized Nitrofurantoin Analogs” (Molecules, 2021)

How the values were obtained:
T. b. brucei GUTat3.1 = assay: In vitro trypanocidal activity (CellTiter-Glo, 3 days); type: cell-based; conditions: Trypanosoma brucei, 72 h, bloodstream forms, 37 °C, mean ± SD of triplicate, read-out: Trypanocidal Activity IC50 ± SD, Tbb GUTat3.1
Procedure: (§1) The bloodstream forms of T. b. brucei GUTat3.1, T. b. rhodesiense IL1501, T. b. rhodesiense Chirundu, T. b. gambiense IL1922, and T. evansi Tansui strains were propagated in culture at 37 °C, whereas the T. congolense IL3000 strain was propagated at 33 °C in Hirumi’s modified Iscove’s medium-9, supplemented with 20% heat-inactivated fetal bovine serum. The bloodstream form cultures were maintained by replacing the entire culture supernatant with fresh medium, every other day.
(§2) The trypanocidal activity and cytotoxicity of nitrofurantoin analogs were evaluated according to previous reports, with some modifications. In brief, bloodstream forms adjusted at 2.5 × 10^3 cells/mL (T. b. brucei GUTat3.1, T. b. gambiense IL1922, and T. b. rhodesiense IL1501), 1 × 10^4 cells/mL (T. evansi Tansui and T. b. rhodesiense Chirundu), and 1 × 10^5 cells/mL (T. congolense IL3000), were cultivated in Nunc® MicroWell 96-well optical bottom plates (Thermo Fisher Scientific, Waltham, MA, USA) and exposed to various analogs at seven different concentrations for 3 days, in an incubator at 37 °C (33 °C for T. congolense IL3000). […] Twenty-five microliters of the Cell-TiterGlo® (Promega, Madison, WI, USA) reagent was added into each well, and bioluminescence was measured using a GloMax®-Multi+Detection System plate reader (Promega).
(§3) The half maximum inhibitory concentration (IC50) of each analog in trypanosomes and the Madin–Darby bovine kidney cells was calculated using the GraphPad Prism version 8 software (GraphPad, Inc., San Diego, CA, USA).

T. b. gambiense IL1922 = assay: as above; type: cell-based; conditions: Trypanosoma brucei, 72 h, bloodstream forms, 37 °C, mean ± SD of triplicate, read-out: Trypanocidal Activity IC50 ± SD, Tbg IL1922
Procedure: as §1, §2, §3

[1] = system: T. b. rhodesiense Chirundu; assay: as above; type: cell-based; conditions: Trypanosoma brucei, 72 h, bloodstream forms, 37 °C, mean ± SD of triplicate, read-out: Trypanocidal Activity IC50 ± SD, Tbr Chirundu
Procedure: as §1, §2, §3

T. b. rhodesiense IL1501 = assay: as above; type: cell-based; conditions: Trypanosoma brucei, 72 h, bloodstream forms, 37 °C, mean ± SD of triplicate, read-out: Trypanocidal Activity IC50 ± SD, Tbr IL1501
Procedure: as §1, §2, §3

T. congolense IL3000 [2] = assay: as above; type: cell-based; conditions: Trypanosoma congolense, 72 h, bloodstream forms, 33 °C, mean ± SD of triplicate, read-out: Trypanocidal Activity IC50 ± SD, Tc IL3000
Procedure: as §1, §2, §3

T. evansi Tansui = assay: as above; type: cell-based; conditions: 72 h, bloodstream forms, 37 °C, mean ± SD of triplicate, read-out: Trypanocidal Activity IC50 ± SD, Tev Tansui
Procedure: as §1, §2, §3

[3] = Cytotoxicity (Cell Counting Kit-8, 3 days); type: cell-based, bovine; conditions: bovine, Madin–Darby bovine kidney (MDBK) cells, 37 °C, mean ± SD of triplicate
Procedure: (§4) Additionally, Madin–Darby bovine kidney cells were cultivated (density, 1 × 10^4 cells/mL) in a 96-well cell culture plate (Thermo Fisher Scientific) with the analogs, at seven different concentrations for 3 days at 37 °C. Next, 10 µl of the Cell Counting Kit-8 solution (Dojindo, Kumamoto, Japan) was added into each well […] 4 h of incubation. Absorbance was measured at 450 nm using a GloMax®-Multi+Detection System plate reader.
as §3

mycobacterial = system: mycobacterial; set-up: method as in PMID 32044516; conditions: more potent than nitrofurantoin; cited from earlier work
T. congolense IL3000 [4] = assay: In vivo treatment efficacy in mice infected with T. congolense; set-up: species or system BALB/c mice; conditions: for time by which all mice died because of high parasitemia: intraperitoneal injection at 0.1 mg/kg; for time by which all mice died because of high parasitemia / time by which all mice succumbed to high parasite levels: 7 consecutive days from 2 dpi
Procedure: Healthy female 8-week-old BALB/c mice (CLEA Japan, Inc., Tokyo, Japan) were used in this study. All animals had ad libitum access to normal chow and water.
The virulent T. congolense IL3000 strain was propagated in a mouse and used for infection. The parasites were passaged once in a mouse before the experiment. The experimental mice were intraperitoneally infected with 100 μL of T. congolense in phosphate-buffered saline, containing 10% glucose at 1 × 10^3 cells/mouse. First, the mice were randomly divided into six groups of three mice, each as follows. Group I (no treatment), mice were not infected and were only treated with solvent (10% dimethyl sulfoxide–phosphate–buffered saline). Group II received 3.5 mg/kg of diminazene aceturate treatment. Groups III (9), IV (11), V (12), and VI were treated with nitrofurantoin and the mice were infected and intraperitoneally treated with 0.1 mg/kg of the compound.
In the second experiment, the mice were randomly divided into six groups of three mice, each as follows—group I received no treatment; group II received 3.5 mg/kg of diminazene aceturate treatment; and groups III (9), IV (11), V (12), and VI received nitrofurantoin—the mice were infected and orally treated with 10 mg/kg of the compound.
Treatment was initiated at 2 days post-infection (dpi) and continued for seven consecutive days. The treatments were freshly prepared each day. Parasitemia was observed using a cell counting chamber until 14 dpi.

[5] = system: Madin–Darby bovine kidney cells; assay: Cytotoxicity (Cell Counting Kit-8, 3 days); type: cell-based; conditions: MDBK cells, 37 °C, mean ± SD of triplicate
Procedure: as §4, §3

[6] = system: six species/strains of animal and human trypanosomes; assay: In vitro trypanocidal activity, summary over all strains; type: cell-based; conditions: over the six trypanosome species/strains
Procedure: as §1
The trypanocidal activity and cytotoxicity of nitrofurantoin analogs were evaluated according to previous reports, with some modifications. […] Twenty-five microliters of the Cell-TiterGlo® (Promega, Madison, WI, USA) reagent was added into each well, and bioluminescence was measured using a GloMax®-Multi+Detection System plate reader (Promega).
as §3

[7] = after both oral (10 mg/kg) and intraperitoneal (0.1 mg/kg) administration
[8] = oral, 10 mg/kg, T. congolense-infected mice

Work on `CCCCCCCCN1C(=O)CN(/N=C/c2ccc([N+](=O)[O-])o2)C1=O` [Analog 8, (E)-1-([(5-Nitrofuran-2-yl)methylene]amino)-3-octylimidazolidine-2,4-dione] yielded an IC50 (T. b. brucei GUTat3.1) of 1.89 ± 0.69 µM, an IC50 (T. b. gambiense IL1922) of 1.4 ± 0.73 µM and an IC50 [1] of 0.039 ± 0.0084 µM. It also gave an IC50 (T. b. rhodesiense IL1501) of 1.38 ± 0.82 µM, an IC50 (T. congolense IL3000 [2]) of 0.03 ± 0.005 µM and an IC50 (T. evansi Tansui) of 0.81 ± 0.082 µM. For the same compound, the IC50 at 3 days [3] was 84.7 ± 8.99 µM and the “anti-mycobacterial potency relative to nitrofurantoin” value (mycobacterial) was 30 fold.

`CCCCCCCCCN1C(=O)CN(/N=C/c2ccc([N+](=O)[O-])o2)C1=O` [Analog 9, (E)-1-([(5-Nitrofuran-2-yl)methylene]amino)-3-nonylimidazolidine-2,4-dione] gave an IC50 (T. b. brucei GUTat3.1) of 0.57 ± 0.22 µM, an IC50 (T. b. gambiense IL1922) of 0.44 ± 0.17 µM and an IC50 [1] of 0.017 ± 0.0067 µM. The IC50 (T. b. rhodesiense IL1501) was 0.6 ± 0.54 µM, the IC50 (T. congolense IL3000 [2]) was 0.01 ± 0.0035 µM and the IC50 (T. evansi Tansui) was 0.27 ± 0.025 µM. The IC50 at 3 days [3] was 251 ± 58.3 µM, the “treatment efficacy against T. congolense infection in vivo” value (“treatment efficacy” below) (T. congolense IL3000 [4]; [7]) was “no treatment efficacy” and the “time by which all mice died because of high parasitemia” value (“time by which all mice died because” for short) (T. congolense IL3000 [4]; T. congolense-infected mice) was no more than 9 dpi. For the same compound, the “time by which all mice succumbed to high parasite levels” value (shortened to “time by which all mice succumbed”) (T. congolense IL3000 [4]; [8]) was no more than 9 dpi.

In the case of `CCCCCCCCCCCN1C(=O)CN(/N=C/c2ccc([N+](=O)[O-])o2)C1=O` [Analog 11, (E)-1-([(5-Nitrofuran-2-yl)methylene]amino)-3-undecylimidazolidine-2,4-dione], the IC50 (T. b. brucei GUTat3.1) is reported as 0.33 ± 0.12 µM, the IC50 (T. b. gambiense IL1922) is reported as 0.33 ± 0.12 µM and the IC50 [1] is reported as 0.021 ± 0.0094 µM. For the same compound, the IC50 (T. b. rhodesiense IL1501) was 0.24 ± 0.13 µM, the IC50 (T. congolense IL3000 [2]) was 0.011 ± 0.0035 µM and the IC50 (T. evansi Tansui) was 0.16 ± 0.014 µM. The IC50 at 3 days [3] was greater than 246 µM, the IC50 [5] was greater than 255 µM and the “treatment efficacy” value (T. congolense IL3000 [4]; [7]) was “no treatment efficacy”. The “time by which all mice died because” value (T. congolense IL3000 [4]; T. congolense-infected mice) was no more than 9 dpi, the “time by which all mice succumbed” value (T. congolense IL3000 [4]; [8]) was no more than 9 dpi and the IC50 [6] was less than 0.34 µM.

For `CCCCCCCCCCCCN1C(=O)CN(/N=C/c2ccc([N+](=O)[O-])o2)C1=O` [Analog 12, (E)-3-Dodecyl-1-([(5-nitrofuran-2-yl)methylene]amino)imidazolidine-2,4-dione], the IC50 (T. b. brucei GUTat3.1) was 0.34 ± 0.12 µM, the IC50 (T. b. gambiense IL1922) was 0.23 ± 0.13 µM and the IC50 [1] was 0.031 ± 0.011 µM. The IC50 (T. b. rhodesiense IL1501) was 0.26 ± 0.11 µM, the IC50 (T. congolense IL3000 [2]) was 0.012 ± 0.0045 µM and the IC50 (T. evansi Tansui) was 0.2 ± 0.017 µM. For the same compound, the IC50 at 3 days [3] was greater than 246 µM, the “treatment efficacy” value (T. congolense IL3000 [4]; [7]) was “no treatment efficacy” and the “time by which all mice died because” value (T. congolense IL3000 [4]; T. congolense-infected mice) was no more than 9 dpi. The “time by which all mice succumbed” value (T. congolense IL3000 [4]; [8]) was no more than 9 dpi and the IC50 [6] was less than 0.34 µM.

With `O=C1CN(/N=C/c2ccc([N+](=O)[O-])o2)C(=O)N1` [Nitrofurantoin] the IC50 (T. b. brucei GUTat3.1) was 1.42 ± 0.15 µM, the IC50 (T. b. gambiense IL1922) was 1.62 ± 0.28 µM and the IC50 (T. b. rhodesiense IL1501) was 1.42 ± 0.25 µM. The IC50 (T. congolense IL3000 [2]) was 0.36 ± 0.043 µM, the IC50 (T. evansi Tansui) was 1.96 ± 0.5 µM and the “time by which all mice died because” value (T. congolense IL3000 [4]; T. congolense-infected mice) was no more than 9 dpi. The “treatment efficacy” value (T. congolense IL3000 [4]; oral treatment, 10 mg/kg) was “partial efficacy” and the “mice surviving until end of the experiment period” value (T. congolense IL3000 [4]; oral, 10 mg/kg, three mice per group, observed until 14 dpi) was “two of three”.

In the case of `CC(=O)NCC(=O)O.CC(=O)NCC(=O)O.N=C(N)c1ccc(N=NNc2ccc(C(=N)N)cc2)cc1` [diminazene aceturate, reference compound], the parasitemia (T. congolense IL3000 [4]; group II, 3.5 mg/kg, T. congolense-infected mice) is reported as “not observed”.
